The values that follow come from patent US3991200A, “Substituted nitroimidazolyl thiadiazoles and oxadiazoles as antibacterial agents and growth promoting compounds” (American Cyanamid Company, priority 1973, dated 1976).

For data set [1], the system named is Staphylococcus aureus strain Smith. In words: antibacterial activity in mice, Tests with Staphylococcus aureus strain Smith. In kind it is in vivo, Staphylococcus aureus (in Carworth Farms CFl-s female mice). The conditions noted are these: read-out: Results alive/tested (converted). As for the experimental part:
(§1) Experiments were conducted to determine the antibacterial activity of compounds of the present invention against Proteus mirabilis, Staphylococus aureus strain Smith and Staphylococcus aureus strain Rose a tetracycline-resistant strain of Staphylococcus aureus. Infection was initiated in Carworth Farms CFl-s female mice (body weight […].) by intra-abdominal infection of 0.5 ml. of the broth dilutions of 5 hour cultures of the above organisms.

The next data set deals with Salmonella gallinarum. Briefly: controlling fowl typhoid in chicks, medicated feed. In kind it is in vivo, Salmonella gallinarum (in sex-linked pullet chicks). To be noted: 10 days. The procedure:
Groups of five one-day old sex-linked pullet checks are infected orally by gavage with 0.5 ml. of a 10^-^2 dilution of a five-hour Trypticase Soy Broth culture of Salmonella gallinarum, the causative agent of fowl typhoid. Each chick receives approximately 6 × 10^5 viable cells. Medication is administered continuously in the feed, beginning 3 hours before infection and continuing for 10 days, at which time the test is terminated and the number of survivors in each group recorded. Each test utilizes two control groups of chicks, the first group comprising 20 chicks which are infected and untreated, and the second group comprising 10 chicks which are uninfected and untreated. The results of the tests are set forth in the following Table III (in some instances, the results from two or more tests are combined): […]

For data set [2], the system named is Staphylococcus aureus strain Rose. Briefly: antibacterial activity in mice, Tests with Staphylococcus aureus strain Rose. The conditions noted are these: read-out: Results alive/tested (converted). In kind it is in vivo, Staphylococcus aureus (in Carworth Farms CFl-s female mice). As for the experimental part: as §1
Data set [3] concerns Pasteurella multocida. In words: controlling a Pasteurella multocida infection in mice. In kind it is in vivo, Pasteurella multocida (in Swiss Webster female mice). The conditions noted are these: 336 h, 2 mg./mouse by gavage, two weeks post-infection, read-out: Survivors/Total (converted). As for the experimental part:
Swiss Webster, female mice weighing 22±2 g. were infected by intrapeutoneal injection of 0.5 ml. of a 5 hour Trypticase Soy Broth culture containing 10^7 cfu. of P. multocida. Each mouse was given by gavage at the time of infection 2 mg. of the test drug suspended in 0.2% agar.

The subject of data set [4] is Pasteurella multocida. The data set is described as above. To be noted: 336 h, two weeks post-infection, read-out: Survivors/Total (converted); for responders at 0.25 mg: 0.25 mg./mouse by gavage; for responders at 0.5 mg: 0.5 mg./mouse by gavage; for responders at 1 mg: 1 mg./mouse by gavage. In kind it is in vivo, Pasteurella multocida (in Swiss Webster female mice).

A further data set relates to Escherichia coli. Briefly: controlling colibacillosis in chicks infected with Escherichia coli, single oral dose. In kind it is in vivo, Escherichia coli (in sex-linked pullet chicks). The conditions noted are these: 12 days after treatment. The procedure:
Three groups of 10 five-day old sex-linked pullet chicks are infected parenterally, in the left thoracic air sac, with 0.2 ml. of a 10^-^1 dilution of a Trypticase Soy Broth culture of Escherichia coli, the causative agent of colibacillosis in poultry. The compounds to be tested are administered by gavage as a single oral dose in an aqueous solution or suspension, and the chicks are permitted to feed ad libitum the feed composition prepared in Example 44. Twelve days after treatment, the test is terminated and the number of survivors in each group recorded.
Four groups of 40, five-day old sex-linked pullet chicks are infected in the same manner as herein set forth with Escherichia coli. […] Twelve days after treatment, the test is terminated and the number of survivors in each group recorded.

Data set [5] concerns Salmonella choleraesuis var. kunzendorf. In words: controlling enteritis caused by Salmonella choleraesuis in swine, medicated feed. In kind it is in vivo, Salmonella choleraesuis var. kunzendorf (in pigs). The source says:
In the late afternoon of the day before infection, feed is removed from all pens. The following morning each group receives 2.5 lbs. of feed mixed either with normal broth or broth containing Salmonella choleraesuis variety kunzendorf organisms. […] For the rest of the trial the pigs are observed and graded daily. […] The trial is terminated four weeks after infection.

Data set [6] can be described thus: concentrations of drug in plasma of noninfected mice (agar-diffusion assay). In kind it is in vivo. To be noted: for Cmax: mouse, read-out: Peak concn. in plasma. As for the experimental part:
Concentrations of drug in plasma are determined by assay of blood obtained by heart puncture of noninfected mice. Blood samples (about 0.5 ml. per mouse) from 10 mice receiving the same dose of drug are pooled. The drug is assayed in the plasma by a standard agar-diffusion plate method with Bacillus subtilis (Lederle No. 17) as the test organism.
In general terms: A growth-free zone around the sample is the usual read-out of agar diffusion tests.

A short description of the next data set: solubility in water. In kind it is physicochemical.
The test system of a further data set is bacteria. The conditions noted are these: prior-art compounds; cited from earlier work.
Data set [7] deals with Salmonella choleraesuis var. kunzendorf. Briefly: controlling enteritis, mice infected with Salmonella choleraesuis, medicated feed. In kind it is in vivo. The conditions noted are these: 10 mice tested.
Experimental: Three groups of ten female Swiss Webster mice weighing 20 gm. are infected intraperitoneally with 0.5 ml. of 10^-^2 dilution of a five-hour Trypticase Soy Broth culture of Salmonella choleraesuis var. kunzendorf, the causitive agent of enteritis in pigs, an organism originally recovered from a field outbreak of Salmonella choleraesuis var. kunzendorf in pigs. Each mouse receives approximately 4.6 × 10^7 cells as the inoculating dose.
The mice are fed a medicated feed, which is a commercial mouse chow containing the compounds to be tested for 3 hours before the infection until 7 days after infection. The mice are held for an additional 7 days after the medication is stopped, and the number of survivors in each group recorded. The medicated feed is prepared by thoroughly admixing calculated amounts of the compounds with commercial mouse chow to provide essentially uniform distribution in the feed offered.
For the next data set, the system named is Proteus mirabilis. In words: antibacterial activity in mice, Tests with Proteus mirabilis. In kind it is in vivo, Proteus mirabilis (in Carworth Farms CFl-s female mice). To be noted: 256 mg/kg. As for the experimental part:
as §1

Setting [8] is: 0.025% in feed, 10 chicks tested.
Where [9] appears, read: 0.006% in feed, 10 chicks tested.
Where [10] appears, read: 0.006% in feed, 5 chicks tested.
Setting [11] is: 0.025% in feed, 5 chicks tested.

Where two headings read alike, the source gives them in different places. Bounds are passed on as bounds.

Regarding `CCOC(=O)N1CCN(c2nnc(-c3ncc([N+](=O)[O-])n3C)s2)CC1` [2[2-(4-Carbethoxy-1-piperazinyl)-5-thiadiazolyl]-1-methyl-5-nitroimidazole], in data set [1], the responders at 256 mg/kg was 80%.
In the data set with Salmonella gallinarum (0.006% in feed, 15 chicks tested), `Cn1c([N+](=O)[O-])cnc1-c1nnc(NC=O)s1` [2-(2-Formamido-5-Thiadiazolyl)-1-methyl-5-nitroimidazole] came in with a Survivors of 9. In the data set with Salmonella gallinarum (0.025% in feed, 15 chicks tested), this compound yielded a Survivors of 11. Further, in the data set with Salmonella gallinarum (0.1% in feed, 10 chicks tested), the Survivors is recorded as 5. The responders at 64 mg/kg in data set [1] is 100%. In addition, the responders at 512 mg/kg in data set [2] was 100%. In addition, the responders at 2 mg in the data set on Pasteurella multocida [3] was 100%. Also, in the data set on Pasteurella multocida [4], the responders at 0.25 mg was 80%, the responders at 0.5 mg was 100% and the responders at 1 mg is 90%.
Take `Cn1c([N+](=O)[O-])cnc1-c1nnc(N2CCNCC2)s1` [2-[2-(1-Piperazinyl)-5-thiadiazolyl]-1-methyl-5-nitroimidazole]: the Survivors in the data set with Escherichia coli (40 mg/kg single oral dose, 20 chicks tested) turned out to be 6; with Escherichia coli (160 mg/kg single oral dose, 20 chicks tested), 18; with Salmonella gallinarum (setting [8]), 1; in the data set with Salmonella gallinarum (0.1% in feed, 10 chicks tested) it was 8. In addition, the responders at 2 mg in the data set on Pasteurella multocida [3] was 10%.
In the case of `CN(C)c1nnc(-c2ncc([N+](=O)[O-])n2C)o1` [2-(2-Dimethylamino-5-oxadiazolyl)-1-methyl-5-nitroimidazole], the Survivors in the data set with Salmonella gallinarum (setting [9]) was 2; in the data set with Salmonella gallinarum (setting [8]), 9; with Salmonella gallinarum (0.1% in feed, 10 chicks tested), 9. Also, the responders at 512 mg/kg in [2] was 100%.
`O=C1OCCN1/N=C/c1ccc([N+](=O)[O-])o1` [Furazolidone]: the “Median Survival Time” value stood at 6.8 days in data set [5] (50 ppm in diet) and 10.0 days in data set [5] (200 ppm in diet). Moreover, the “Survivors Per Total” value is given as 0/10 in [5] (50 ppm in diet ([…] per day nitroimidazole, 2.1 furazolidone)) and 2/10 in data set [5] (200 ppm in diet (12.3 mg/kg per day nitroimidazole, 7.5 furazolidone), *9/10 differs significantly from infected-untreated (P<.01)).
`Cn1c([N+](=O)[O-])cnc1-c1nnc(N)s1` [2-(2-Amino-5-Thiadiazolyl)-1-methyl-5-nitroimidazole]: the “absorption, in words” value in data set [6] (mice) is listed as “rapidly absorbed”. For the same compound, the Cmax was 14000 to 18000 ng/mL in [6] (in vivo, 89 mg/kg); below 1000 ng/mL in data set [6] (plasma, 0.2 mg/kg); 2000 to 4000 ng/mL in data set [6] (plasma, 16 mg/kg); 6000 to 12000 ng/mL in data set [6] (plasma, 56 mg/kg). Besides, the “solubility in water, in words” value in the data set “solubility in water” is reported as “relatively insoluble in water”.
Turning to `Cn1c([N+](=O)[O-])cnc1C=NN1CCNC1=O` [1-[(1-methyl-5-nitro-2-imidazolylmethylene)amino]-2-imidazolidinone], the “antibacterial activity, in words” value in the data set on bacteria is on record as “some antibacterial activity”.
On to `CC(=O)Nc1nnc(-c2ncc([N+](=O)[O-])n2C)s1` [2-(2-Acetamido-5-thiadiazolyl)-1-methyl-5-nitro-imidazole], for which the Survivors amounted to 29 in the data set with Escherichia coli (10 mg/kg single oral dose, 40 chicks tested); 35 with Escherichia coli (20 mg/kg single oral dose, 40 chicks tested); 39 in the data set with Escherichia coli (40 mg/kg single oral dose, 40 chicks tested); 3 with Salmonella gallinarum (setting [10]); 4 in the data set on Salmonella gallinarum (setting [11]); 5 in the data set on Salmonella gallinarum (0.1% in feed, 5 chicks tested).
The compound `CN(C)c1nnc(-c2ncc([N+](=O)[O-])n2C)s1` [2-(2-Dimethylamino-5-thiadiazolyl)-1-methyl-5-nitroimidazole] came in with a Survivors with Salmonella gallinarum (0.1% in feed, 5 chicks tested) of 4. In addition, in [1] (512 mg/kg), the responders at 512 mg/kg was 80%.
Regarding `CCn1c([N+](=O)[O-])cnc1-c1nnc(N)s1` [2-(2-Amino-5-thiadiazolyl)-1-ethyl-5-nitroimidazole], the Survivors with Salmonella gallinarum (setting [8]) was 9; in the data set on Salmonella gallinarum (0.1% in feed, 10 chicks tested), 10; in data set [7] (0.025% in mouse chow) it was 3; in data set [7] (0.1 % in mouse chow), 9. In [2], the responders at 512 mg/kg was 100%. Also, in the data set on Pasteurella multocida [3], the responders at 2 mg was 100%.
With `CCn1c([N+](=O)[O-])cnc1-c1nnc(N)o1` [2-(2-Amino-5-oxadiazolyl)-1-ethyl-5-nitroimidazole], the Survivors in the data set on Salmonella gallinarum (setting [10]) amounted to 3; in the data set with Salmonella gallinarum (setting [11]), 5; in the data set on Salmonella gallinarum (0.1% in feed, 10 chicks tested) it was 10. In [2], the responders at 512 mg/kg was 100%. In the data set on Pasteurella multocida [3], the responders at 2 mg was 80%.
On to `CN(C)CCCN1CCN(c2nnc(-c3ncc([N+](=O)[O-])n3C)s2)CC1` [2-{2-[4-(3-Dimethylaminopropyl)-1-piperazinyl]-5-thiadiazolyl}-1-methyl-5-nitroimidazole], for which the responders at 256 mg/kg in [1] was 60%. In addition, the responders at 2 mg in the data set on Pasteurella multocida [3] is 100%.
As for `CNc1nnc(-c2ncc([N+](=O)[O-])n2C)s1` [2-(2-Methylamino-5-thiadiazolyl)-1-methyl-5-nitroimidazole], in the data set on Salmonella gallinarum (0.1% in feed, 5 chicks tested), the Survivors is given as 3. Further, in the data set on Proteus mirabilis, the Results alive/tested is recorded as 4/5. In data set [2], the responders at 512 mg/kg is 80%.
The compound `CN(C)C=Nc1nnc(-c2ncc([N+](=O)[O-])n2C)s1` [2-{2-[ (Dimethylaminomethylene)amino]-5-thiadiazolyl} -1-methyl-5-nitroimidazole] had a Survivors in the data set with Salmonella gallinarum (0.05% in feed, 5 chicks tested) of 5. In the data set with Salmonella gallinarum (0.1% in feed, 5 chicks tested), the Survivors was determined as 5. For the same compound, the Results alive/tested in the data set with Proteus mirabilis is on record as 3/5. Besides, in [1], the responders at 64 mg/kg is 100%. Besides, the responders at 2 mg in the data set with Pasteurella multocida [3] is 100%. In the data set on Pasteurella multocida [4], the responders at 0.25 mg was 80%, the responders at 0.5 mg is 97.5% and the responders at 1 mg was 93.3%.
`Cn1c([N+](=O)[O-])cnc1-c1nnc(N)o1` [2-(2-Amino-5-oxadiazolyl)-1-methyl-5-nitroimidazole]: the Survivors was found to be 7 with Escherichia coli (5 mg/kg single oral dose, 20 chicks tested); 13 with Escherichia coli (20 mg/kg single oral dose, 20 chicks tested); 15 in the data set with Escherichia coli (80 mg/kg single oral dose, 20 chicks tested); 9 with Salmonella gallinarum (setting [9]); 10 in the data set on Salmonella gallinarum (setting [8]); 10 with Salmonella gallinarum (0.1% in feed, 10 chicks tested). Besides, the responders at 512 mg/kg in data set [2] is 100%. Also, the responders at 2 mg in the data set on Pasteurella multocida [3] was 70%. Besides, in the data set on Pasteurella multocida [4], the responders at 0.25 mg was 10%. In addition, the responders at 0.5 mg in the data set on Pasteurella multocida [4] was 15%. Besides, in the data set on Pasteurella multocida [4], the responders at 1 mg was 40%.
In the case of `Cn1c([N+](=O)[O-])cnc1C=NN1CCOC1=O` [3-[(1-methyl-5-nitro-2-imidazolylmethylene)amino]-2-oxazolidinone], the “antibacterial activity, in words” value in the data set on bacteria was “some antibacterial activity”.
